test: gradient 5% acetonitrile 3 min, to 50% in 2 min, to 85% in 15 min, held 3 min, 100 µL/min; conditions: column: Zorbax Extend-C18 2.1 x 50 mm; eluents: water / acetonitrile, 0.1% formic acid
Procedure, shortened: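 In both positive and negative ionization mode, a quadrupole time-of-flight mass spectrometer coupled to HPLC analyzed pure standards run in mixtures of ~100 molecules. The Zorbax Extend-C18 column (2.1 × 50 mm, 1.8 μm) was operated at 100 μL/min with water and acetonitrile, each containing 0.1% formic acid. The dead volume was 40 μL and the dwell volume 900 μL. Retention time came from adduct peaks that were computationally picked and individually inspected by hand.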

Row | Compound | RP-LC retention time [s]
1 | CCCN1C(=O)COc2ccc(-c3noc(Cc4cc(OC)cc(OC)c4)n3)cc21 | 1080
2 | COc1ccc(OCC(O)CN2CCN(c3ccc(Cl)cc3)CC2)cc1 (stereo not given) | 795
3 | CCNc1cc(N2CCCC(CCC(=O)NCCN3CCN(C)CC3)C2)ncn1 (stereo not given) | 541
4 | O=C(NC1CCN(c2cc(-c3cccs3)[nH]n2)C1)c1ccc2[nH]ccc2c1 (stereo not given) | 672
5 | CCNC(=O)C1CCc2sc(C(=O)N3CCCC3)cc2C1 (stereo not given) | 663
6 | Cc1cc(C(=O)O)c2c(C)nn(-c3cccc(F)c3)c2n1 | 954
7 | O=C(NCc1ccccn1)C(=O)c1cn(CC(=O)N2CCOCC2)c2ccccc12 | 614
8 | CC(C)n1cnnc1CC1CCN(C(=O)C2CCC2)CC1 | 611
9 | COc1ccc(-c2cn3c(CC(=O)N4CCCCC4)csc3n2)cc1OC | 666
10 | Cc1ccc(CNC(=O)CC2CCN(C(=O)c3[nH]c(C)cc3C)CC2)cc1 | 797
11 | Cc1nnc(C2CC3(CCN(CCO)CC3)CN2Cc2ccccc2)o1 (stereo not given) | 565
12 | Cc1cc(NC(=O)C2CCCN(c3ccc(-n4cccn4)nn3)C2)no1 (stereo not given) | 654
13 | CCc1nccn1Cc1noc(-c2ccc(F)cc2)n1 | 615
14 | O=S(=O)(NC1CCCN(c2cc(-c3ccncc3)[nH]n2)C1)c1ccc(Cl)cc1 (stereo not given) | 579
15 | O=C(c1cc(S(=O)(=O)N2CCCC(C(=O)N3CCN(c4ccccc4)CC3)C2)c[nH]1)N1CCCC1 (stereo not given) | 804
16 | CC1CCN(S(=O)(=O)c2ccc(-c3nnc(C(=O)N4CCCCCC4)o3)cc2)CC1 | 1100
17 | Fc1ccc(Nc2nc(N3CCOCC3)nc3[nH]ncc23)cc1 | 601

Row | Compound | RP-LC retention time [s]
18 | Cc1cc(N2CCN(C(=O)c3ccc(F)cc3)CC2)nc(N2CCOCC2)n1 | 608
19 | COc1ccc(-c2noc(Cc3nnc(-c4ccc(Cl)cc4)o3)n2)cc1OC | 966
20 | O=C(Cn1c2ccccc2c2ncn(Cc3nc(C4CC4)no3)c(=O)c21)NC1CCCC1 | 819
21 | Cc1cc(C(=O)NCC2Cn3cccc3C(=O)N2C)n(C)n1 (stereo not given) | 600
22 | CCOc1ccc(CNC(=O)c2snc(C(=O)NCc3ccc(F)cc3)c2N)cc1 | 1040
23 | CNC(=O)c1noc([C@@H]2CC(F)(F)CN2C(=O)C2CCC2)n1 | 669
24 | CCOCCn1c(=O)c2c(nc3n2CCN3c2cc(Cl)ccc2OC)n(C)c1=O | 774
25 | Cc1cc(N2CCN(S(=O)(=O)c3cc(F)ccc3C)CC2)nc(NC2CCCCC2)n1 | 864
26 | Cc1ccc(Nc2nc(N)nc(CN3CCC(C(N)=O)CC3)n2)cc1 | 565
27 | CC(NC(=O)C1CCN(C(=O)c2ncn3c2COC(c2ccc(F)cc2)C3)CC1)c1ccccc1 (stereo not given) | 809
28 | Fc1ccc(-c2csc(Cc3nc(-c4ccc(Cl)cc4)no3)n2)cc1 | 1310
29 | CCn1ncn2cc(S(=O)(=O)Nc3cc(C)ccc3C)cc2c1=O | 937
30 | Cc1cc(NC(=O)CN2C(=O)C3CCCCN3c3ccc(C(=O)N4CCCC4)cc32)no1 (stereo not given) | 738
31 | COc1ccc(N2CC(c3noc(-c4ccc5c(c4)OCO5)n3)CC2=O)cc1OC (stereo not given) | 770
32 | O=C(c1ccc(Cl)s1)N1CCC(N(C(=O)C2CC2)C2CCOCC2)CC1 | 773
33 | CCCCN1CCN(S(=O)(=O)c2cc(-c3nnc(C4CC4)o3)co2)CC1 | 633
34 | CCC(C)NC(=O)C1COC2(CCN(C(=O)c3ccc(F)cc3F)CC2)N1C(=O)c1ccccc1 (stereo not given) | 744

Now from value to molecule:

Row | RP-LC retention time [s] | Compound
35 | 642 | Cn1ncc(N2CCC(C(=O)Nc3ccc4oc(-c5ccncc5)nc4c3)C2)cc1=O (stereo not given)
36 | 848 | CCN(CC)c1nc2ccsc2c(=O)n1CCC(=O)NCc1ccc(F)cc1F
37 | 955 | CC(C)NC(=O)c1ccc(OCC2CCCN(C(=O)Cc3cccc(F)c3)C2)cc1 (stereo not given)
38 | 641 | O=C(Nc1ccc(Br)cc1)Nc1c(-c2ccncc2)nc2ccccn12
39 | 827 | CCCN1C(=O)CN(S(=O)(=O)c2ccccc2)CC1(C)C(=O)NCc1ccc(F)cc1 (stereo not given)
40 | 761 | CCOc1ccccc1CNS(=O)(=O)c1ccc2c(c1)CCCC(=O)N2
41 | 835 | O=C(NCC(=O)N1CCCc2ccccc21)c1ccc(Cl)cc1
42 | 631 | COc1ccc(C2C(C(=O)NCC3CCCO3)CCC(=O)N2c2cc(OC)c(OC)c(OC)c2)cc1 (stereo not given)
43 | 879 | COc1ccc(N2C(=O)CN(Cc3ccccc3C)[C@H]3CS(=O)(=O)C[C@H]32)cc1Cl
44 | 755 | CN1C(=O)CCc2cc(NC(=O)Cc3ccccc3Cl)ccc21
45 | 853 | O=C(Nc1ccc2c(c1)OCCO2)N1CC(c2nc(CCOCc3ccccc3)no2)C1
46 | 812 | CCOC(=O)c1nc(Nc2ccccc2F)c2ccccc2n1
47 | 1090 | O=C(Cn1cnc2c(sc3nc(-c4ccccc4)ccc32)c1=O)NCCC1=CCCCC1
48 | 1280 | O=C(Nc1cc(F)ccc1F)c1cc2sccc2n1Cc1ccc(Cl)cc1
49 | 847 | CCc1ccc(NC(=O)C2CC(=O)N(c3n[nH]c4cccc(F)c34)C2)cc1 (stereo not given)
50 | 648 | CCN(Cc1ccc(Cl)cc1)Cc1cc(=O)n2cccc(C)c2n1

Row | RP-LC retention time [s] | Compound
51 | 982 | O=C(Nc1ccc(Cl)cc1F)c1cnc(-c2ccccc2)nc1-c1ccncc1
52 | 902 | Cc1ccccc1CNC(=O)Cn1c(C)cc(-c2nnc(C3CCC3)o2)c1C
53 | 720 | Cc1c(Cl)cccc1NC(=O)N1CC(n2cnnc2-c2ccccc2)C1
54 | 895 | O=C1CCCN1CCCn1c(SCc2c(F)cccc2F)nc2ccccc2c1=O
55 | 729 | Cc1cc(F)ccc1NC(=O)C1CCN(S(=O)(=O)c2ccc3[nH]c(=O)ccc3c2)CC1
56 | 788 | COCCCNC(=O)C1COc2ccc(NC(=O)c3ccc(Br)cc3)cc2C1 (stereo not given)
57 | 817 | COc1ccc(NC(=O)C2CCN(S(=O)(=O)c3ccc4c(c3)sc(=O)n4C)CC2)cc1
58 | 577 | O=C(NCc1cccs1)c1ccc2c(c1)ncn2CCN1CCCC1
59 | 581 | Cc1cc(N2CCN(C)CC2)nc2ccc(NC(=O)CCC(=O)NCCc3ccc(Cl)cc3)cc12
60 | 737 | Cc1cc(C)n(-c2nc(C)c(C(=O)Nc3ccc(N(C)C)cc3)s2)n1
61 | 866 | CC1(C(=O)NCc2ccc(F)cc2)CN(S(C)(=O)=O)CC(=O)N1Cc1ccc(Cl)cc1 (stereo not given)
62 | 724 | O=C(CN1C(=O)C2CCCCN2c2ccc(C(=O)N3CCCC3)cc21)NCc1ccco1 (stereo not given)
63 | 750 | O=C(Cn1nc2c(N3CCCCCC3)nccn2c1=O)Nc1cccc(Cl)c1F
64 | 790 | O=C(CN1C(=O)NC2(CCCCC2)C1=O)NCCc1ccc(Cl)cc1
65 | 1040 | O=c1c2sccc2n(Cc2nc(-c3ccccc3)no2)c(=O)n1Cc1ccc(F)cc1

— the METLIN SMRT retention time set (Domingo-Almenara et al. 2019)
